Assay results: article PMC5510229, “BCAT1 controls metabolic reprogramming in activated human macrophages and is associated with inflammatory diseases” (Nature Communications, 2017)

Columns and labels:
[1] = system: collagen-induced arthritis (CIA); assay: Collagen-induced arthritis (CIA) in mice; format: in vivo, DBA/1 mice
Text: Figure 5 Orally administrated ERG240 reduced the severity of crescentic glomerulonephritis in rats and CIA in mice. (a) Glomerular crescents, serum creatinine, and proteinuria levels measured in vehicle and ERG240 treated rats at day 10 following induction of nephrotoxic nephritis. At least n=4 rats were used in each group. (b) Col1a1 immunofluorescence (IF) quantification (left panel), representative IF and Sirius red staining images (middle panel) and Col1a1 qRT-PCR (normalized to Hprt) 28 days following NTS injection. Original magnification, × 20, at least n=4 animals were used in each group. (c) Clinical progression of CIA measured by the Mean Arthritis Index in vehicle and ERG240-treated animals in both studies (prophylactic and therapeutic, upper panel; at least n=6 animals per group). Histological analysis of joints from representative whole paws scored for inflammation, pannus formation, cartilage damage and bone resorption (lower panel). Error bars are s.e.m. Either Mann–Whitney or Student’s t-test were used for significance. *** P<0.001, ** P<0.01, * P<0.05. Scale bars, 50 μm.
DBA/1 mice (6–8 weeks old from Harlan Sprague Dawley Inc.) were injected s.c. with 100 μg of bovine type II collagen emulsified in complete Freund’s adjuvant (Sigma). At day 21 following primary immunization, the mice were given a booster injection of 100 μg of bovine type II collagen emulsified in incomplete Freund’s adjuvant. The prophylactic arm of the study involved water-treated (vehicle control, n=6) and ERG240-treated (720 mg kg^−1, o.p., qdx5, 3 weeks, n=10) animals, while the therapeutic arm of the study involved water-treated (vehicle control, n=10) and ERG240-treated (1,000 mg kg^−1, o.p., qdx5, 4 weeks, n=10) animals. Parafin-embedded paws were sectioned at ∼5 μm. One slide from each paw was stained with hematoxylin and eosin (H&E) and served as a reference, while four additional slides were stained using antibodies against F4/80 (AbD Serotec). The expression of the above markers in the joints of the preserved CIA tissues was scored according to the following scale: 0=no staining; 1=minimal; 2=mild; 3=moderate; 4=marked; and 5=diffuse and severe staining (see Supplementary Methods for detailed histological evaluation of CIA tissues). Serum levels of TNF and RANKL were analysed using relevant ELISA kits from Biolegend (TNF-α) and Abcam (RANKL) according to the manufacturers’ instructions. Details for determining the presence of antibodies against type II collagen are provided in Supplementary Methods.
Clinical and histological evaluation methods in CIA
Development of arthritis was assessed ever y other da y and scored on a scale of 0-4 as follows: 0=no oedema or swelling, 1=slight oedema and er ythema restricted to the foot or ankle, 2=moderate to severe oedema and er ythema restricted to the foot or ankle, 3 =oedem a and erythema of the entire paw, and 4=maximum inflamed limb i nvolving multiple joints.
The maximal arthritic score or arthritic index (AI) per animal was 16 (cumulative for 4 limbs).Paw thickness was measured before termination of the experiment . […]
Histological evaluation of CIA t issues.
Dosing of the animals in the proph ylactic groups started on the da y of the booster injection (day 21), while dosing of the animals in the therapeutic groups started after arthritis was established (da y 26). Animals were scored for the presence of arthritis ever y other da y and weighed once a week. At the end of the study, sera were obtained b y cardiac puncture and paws were excised for histological examination (HistoTox Labs Inc). From each therap eutic group, three front and four hind paws were selected for histological an al ys is . Paws were fixed in 4% formalin and decalcified in formic acid. Parafin sections (8 µm) were stained with toluidine blue (T-blue). The sections were evaluated blindly and scored for inflammation, pannus infiltration, cartilage damage, and bone erosion according to scale shown here. […]

[2] = system: human monocyte-derived macrophages (hMDMs); assay: Seahorse extracellular flux analysis (OCR, ECAR) in hMDMs; format: cell-based; details: LPS 100 ng ml^−1 + ERG240 20 mM, 3 h
Description: Figure 2 BCAT1 inhibition reduces oxygen consumption and glycolysis in human macrophages. (a) Real-time extracellular OCR measurements in hMDMs (left panel) that were previously treated with either LPS (100 ng ml^−1) or LPS+ERG240 (20 mM) for 3 h. OCR values were recorded following sequential treatments with glucose (5 mM), oligomycin A (0.5 μM), carbonyl cyanide 4-(trifluoromethoxy) phenyl- hydrazine (FCCP, 1 μM) and a combination of 2-deoxy-D-glucose (2-DG, 50 mM), antimycin A (1 μM) and rotenone (1 μM). Basal respiration, estimated ATP production, and maximal respiration are shown in the right panel. n=3 healthy donor hMDMs were used in 12 technical replicates. The results are representative of three independent experiments. (b) Real-time ECAR (left panel), glycolysis and glycolytic capacity (right panel). n=3 healthy donor hMDMs were used in 12 technical replicates. The results are representative of three independent experiments. (c) hMDMs were subjected to BCAT1 siRNA (si-BCAT1) or non-targeting siRNA (Si-Control) treatment, followed by LPS stimulation (3 h, 100 ng ml^−1) before measuring BCAT1 expression levels (left panel), OCR (middle panel) and ECAR (right panel). (d) Basal respiration, estimated ATP production, maximal respiration, glycolysis and glycolytic capacity in si-Control and si-BCAT1 transfected, LPS-treated hMDMs. n=4 hMDMs were used in at least five technical replicates. Error bars are s.e.m. Significance was tested using two-tailed Student’s t-test.
Real-time measurements of OCR and ECAR were performed using a Seahorse XF96 Extracellular Flux Analyzer (Seahorse Bioscience). hMDMs cultured for 5 days in presence of RPMI containing M-CSF (100 ng ml^−1) and FCS (10%) were washed and incubated with either ERG240 or LPS or a combination of both for 3 h. Cells were then washed, re-suspended using the non-enzymatic cell dissociation buffer (Sigma) and 5 × 10^5 hMDMs were seeded as a monolayer in a 96-well microplate containing XF Assay Modified DMEM. Glucose and different metabolic drugs were injected during real-time measurements of OCR and ECAR. Basal respiration was calculated as the last measurement before addition of oligomycin – non mitochondrial respiration (minimum rate measurement after Rot/AntA). Estimated ATP production designates the last measurement before addition of oligomycin – minimum rate after oligomycin. Maximal respiration is shown as the maximum rate measurement after addition of FCCP – non mitochondrial respiration (minimum rate measurement after Rot/AntA). Glycolysis refers to ECAR values before the addition of oligomycin – ECAR values before the addition of glucose. […] In RNAi experiments, hMDMs transfected with either BCAT1 siRNA or control (non-targeting) siRNA were seeded in a 96-well microplate, LPS-stimulated (100 ng ml^−1, 3 h) and real-time measurements of OCR and ECAR were recorded, as described above.

[3] = excised paws after completion of CIA

For `CC(=O)C(C)CCC(=O)O` (stereo not shown) [ERG240], the “serum Tnf levels” value ([1]; CIA mice, ELISA) was “diminished levels”, the “serum Tnfsf11 (RANKL) levels” value ([1]; CIA mice, ELISA) was “diminished levels” and the “decrease of bone erosion (paw histology)” value [1, 3] was 86%. The “decrease of cartilage degradation (paw histology)” value [1, 3] was 74%, the “decrease of inflammation (paw histology)” value [1, 3] was 53% and the “decrease of pannus formation (paw histology)” value [1, 3] was 86%. For the same molecule, the “F4/80+ macrophages in the joints” value ([1]; immunohistochemistry of excised paws) was “significant reduction”, the joint oedema ([1]; only in the fore paws, therapeutic study) was “significant decrease” and the “severity of CIA (Mean Arthritis Index)” value ([1]; oral, prophylactic 720 mg kg^−1, therapeutic 1000 mg kg^−1) was “alleviates the severity of CIA”. For the same molecule, the basal respiration [2] was “significantly reduced”, the “estimated ATP production” value [2] was “significantly reduced” and the “extracellular acidification rate (ECAR)” value [2] was “decreased”. The glycolysis [2] was “significantly reduced”, the glycolytic capacity [2] was “significantly reduced” and the maximal respiration [2] was “significantly reduced”. For the same molecule, the “oxygen consumption rate (OCR)” value [2] was “decreased”.
